These results are taken from paper PMC5790467, “Enhanced anti-tumor efficacy and mechanisms associated with docetaxel-piperine combination- in vitro and in vivo investigation using a taxane-resistant prostate cancer model” (Oncotarget, 2017).

For data set [1] the following is noted: ketoconazole 200 mg once daily for three days; cancer patients; cited from earlier work.
In data set [2] the test system is PC3 tumor xenografts. The experiment in a line: Tumor growth in mice with PC3 tumor xenografts. Format: in vivo, ICR-NOD/SCID mice. The settings on record: DTX 20 mg/kg once a week i.v., n = 3. The protocol: (§1) The following experimental protocol was adopted after approval by the Animal Research Ethics Committee at the Chinese University of Hong Kong. PC3 and PC3-TxR cells were cultured in RPMI 1640 medium containing 10% FBS and 1% penicillin-streptomycin in a humidified atmosphere of 5% CO2 at 37°C. PC3 and PC3-TxR cell pellets were re-suspended in serum free RPMI1640 and diluted by Matrigel™ Basement Membrane Matrix (BD Biosciences, Bedford, MA, USA) to the density of 3.33 × 10^6cells/ml. Male ICR-NOD/SCID mice (Laboratory Animal Services Center at the Chinese University of Hong Kong) weighing 25 to 30 g (age 6–8 weeks) was anesthetized with an intraperitoneal injection of a cocktail containing 87 mg/kg ketamine and 8.7 mg/kg xylazine (diluted with saline and the injection volume was about 0.1 ml). The cell suspension was injected subcutaneously to both the left and right flank region. The tumors were allowed to grow for about 2 weeks. Tumor volumes were measured twice per week (tumor volume = [(W^2 × L)/2], where W is the tumor measurement at the widest point, and L is the tumor dimension at the longest point). When the tumors reach about 100 mm^3, treatment was started and the date was designated as Day 0.

A short description of data set [3]: DTX concentration in plasma and tissues of TxR tumor bearing mice (LC/MS/MS). The format is in vivo, ICR-NOD/SCID mice. Particulars: for concentration at 2 h: ICR-NOD/SCID, mouse, iv, 20 mg/kg. The protocol:
On Day 14, mice were sacrificed two hours post drug administration. Blood samples were collected by cardiac puncture followed by centrifugation at 5000 rpm for 3 min for obtaining the plasma. Brain, lung, liver, kidney and tumor were collected and weighed. About 100 mg of each tissue samples were carefully weighed and homogenized after being spiked with 300 µl of formic acid (0.2%, v/v). About 50 µl of plasma or tissue homogenates were spiked with 5 µl of 50% acetonitrile in water and 150 µl of mixture of acetonitrile and methanol (50:50, v/v) containing glibenclamide at 50 ng/ml as internal standard. After centrifugation at 13000 rpm for 10 min, the supernatants were injected into LC/MS/MS system which consisted of an Agilent 6430 triple quadrupole mass spectrometer equipped with an electrospray ionization source (ESI), two Agilent 1290 series pumps and autosampler (Agilent Technologies, Inc., CA, USA). The analytes were separated using a Waters Nova-Pak^ÒC18 column (150 mm×3.9 mm, i.d., 4 µm particle size) protected by a collared frit (4/4.6 mm i.d., 0.5 µm pore size, Thermo Scientific full name, city, state, country). The mobile phase consisted of 0.2% formic acid and acetonitrile (50:50, v/v) with a flow rate at 0.4 ml/min.

For data set [4], the system named is PC3-TxR cells. The data set is described as follows: Cell viability (cytotoxicity) of PC3-TxR cells. The format is cell-based. Particulars: Homo sapiens. The source says:
www.impactjournals.com/oncotarget/ Oncotarget, Supplementary Materials 2017
investigation using a taxane-resistant prostate cancer model
Supplementary Figure 1: Cell viability (measured from triplicate samples) of PC3-TxR cells. (A) The cytotoxicity of PIP
(1 picture or pasted object on this page, not shown here)

In data set [5] the test system is PC3-TxR tumor xenografts. The experiment in a line: Tumor growth in mice with PC3-TxR (taxane-resistant) tumor xenografts. Particulars: DTX 20 mg/kg once a week i.v. The format is in vivo, ICR-NOD/SCID mice. The protocol:
as §1

Data set [6] in a line: Body weight and tolerability in mice with TxR tumor xenografts. The settings on record: TxR tumor xenograft mice; two weeks of treatment; control 96%. The protocol: For oral administration of PIP, in 1 ml of PIP dosing solution, 100 µl of its stock solution was solubilized with 500 µl of PEG 400 and 400 µl of physiological saline and the mixture was administrated orally to mice at the dose of 0.1 ml/10 g body weight. […] On Day 0, mice with PC3 cell xenografts were divided into two groups and mice with PC3-TxR cell xenografts were divided into four groups. Mice in each group were treated according to Supplementary Table 3 and the drug dosing lasted for 2 weeks with body weight and tumor sized measured twice per week. […] At the end of experiment, the mice were anesthetized followed by haemospasia to death by cardiac puncture.

Data set [7] has as its target P-gp (Homo sapiens, UniProt P08183). The experiment in a line: Uptake of DTX in MDCK/MDR1 cells with or without PIP pre-incubation. On the set-up: expressed in transfected cells; host or cells: MDCK (MDCK/MDR1), gift from Prof; P. Borst. The format is cell-based. The protocol:
MDCK cells transfected with human gene (MDCK/MDR1) were cultured in Dulbecco’s modified Eagle’s medium supplemented with 10% FBS and 1% penicillin-streptomycin. Cells were subcultured when the confluence reached 80% by trypsinization with 0.25% of trypsin-EDTA. MDCK/MDR1 cells were seeded at a density of 2 × 10^5 cells/well to 24-well and incubated for 24 h. […] After washing twice with ice-cold HBSS, cells were collected in 100 µl of formic acid (0.2%, v/v) using a scraper. BCA Protein Quantification Kit (Abcamplc., Cambridge, UK) was used to quantify the protein content. Cell lysate was treated by 300 µl of mixture of acetonitrile and methanol (50:50, v/v) containing glibenclamide at 50 ng/ml, followed by sonication for 15 min.

The mark [8] stands for this setting: Day 14, two hours after i.v. bolus DTX, TxR mice.

Read-outs that look alike come from different tables or passages of the source.

P-gp, sequence (P08183 whole entry): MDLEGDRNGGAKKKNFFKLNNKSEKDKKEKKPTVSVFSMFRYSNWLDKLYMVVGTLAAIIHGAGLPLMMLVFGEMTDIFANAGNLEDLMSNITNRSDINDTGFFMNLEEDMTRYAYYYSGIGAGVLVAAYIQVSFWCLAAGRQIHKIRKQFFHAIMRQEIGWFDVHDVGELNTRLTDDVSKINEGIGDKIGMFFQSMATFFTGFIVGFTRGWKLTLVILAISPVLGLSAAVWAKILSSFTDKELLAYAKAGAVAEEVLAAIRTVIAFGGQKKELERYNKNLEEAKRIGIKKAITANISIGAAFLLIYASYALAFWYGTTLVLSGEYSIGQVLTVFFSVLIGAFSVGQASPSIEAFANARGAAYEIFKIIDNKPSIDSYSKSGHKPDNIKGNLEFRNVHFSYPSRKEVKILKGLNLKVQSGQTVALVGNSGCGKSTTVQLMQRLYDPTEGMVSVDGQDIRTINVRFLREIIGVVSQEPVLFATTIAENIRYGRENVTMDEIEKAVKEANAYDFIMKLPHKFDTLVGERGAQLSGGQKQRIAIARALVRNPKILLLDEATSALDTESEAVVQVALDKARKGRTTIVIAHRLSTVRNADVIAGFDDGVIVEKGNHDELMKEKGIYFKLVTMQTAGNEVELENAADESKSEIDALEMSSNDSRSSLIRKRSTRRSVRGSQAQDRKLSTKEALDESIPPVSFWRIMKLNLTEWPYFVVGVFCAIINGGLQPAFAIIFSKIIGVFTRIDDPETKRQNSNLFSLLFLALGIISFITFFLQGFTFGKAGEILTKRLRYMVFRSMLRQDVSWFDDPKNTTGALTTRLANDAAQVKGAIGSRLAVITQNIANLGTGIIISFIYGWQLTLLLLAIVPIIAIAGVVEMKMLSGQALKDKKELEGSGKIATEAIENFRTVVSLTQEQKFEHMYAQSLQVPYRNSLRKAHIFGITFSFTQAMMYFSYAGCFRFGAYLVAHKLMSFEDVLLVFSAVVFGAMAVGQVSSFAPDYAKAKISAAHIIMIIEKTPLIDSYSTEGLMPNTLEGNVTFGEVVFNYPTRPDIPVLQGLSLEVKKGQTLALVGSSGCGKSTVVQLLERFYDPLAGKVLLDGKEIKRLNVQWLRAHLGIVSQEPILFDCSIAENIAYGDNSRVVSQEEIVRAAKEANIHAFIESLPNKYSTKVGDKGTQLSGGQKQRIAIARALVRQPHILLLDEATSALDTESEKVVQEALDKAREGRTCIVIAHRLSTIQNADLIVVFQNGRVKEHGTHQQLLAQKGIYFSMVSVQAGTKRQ

On to `CC(=O)N1CCN(c2ccc(OCC3COC(Cn4ccnc4)(c4ccc(Cl)cc4Cl)O3)cc2)CC1` (stereo not shown) [Ketoconazole], for which the “reduction of the clearance of DTX” value in data set [1] was 49%.

As for `CC(=O)O[C@@]12CO[C@@H]1C[C@H](O)[C@@]1(C)C(=O)[C@H](O)C3=C(C)[C@@H](OC(=O)[C@H](O)[C@@H](NC(=O)OC(C)(C)C)c4ccccc4)C[C@@](O)([C@@H](OC(=O)c4ccccc4)[C@H]21)C3(C)C` [DTX, Docetaxel], the “percentage of tumor size increase” value stood at 55% in data set [2] and 217% in data set [5] (TxR tumor xenografts, two weeks after drug administration, PIP 50 mg/kg daily p.o.). The compound also registered a DTX plasma concentration in data set [3] (setting [8]) of 703.847 ± 311.129 ng/mL. For the same compound, the “DTX tissue concentration, Brain” value in data set [3] (setting [8]) was determined as 0.022 ± 0.009 ng/mg. For the same compound, in data set [3] (setting [8]), the “DTX tissue concentration, Kidney” value worked out at 2.322 ± 1.447 ng/mg. Besides, the “DTX tissue concentration, Liver” value in data set [3] (setting [8]) came out at 1.080 ± 0.763 ng/mg. Moreover, the “DTX tissue concentration, Tumor” value in data set [3] (setting [8]) is recorded as 1.312 ± 0.754 ng/mg. Besides, the concentration at 2 h in data set [3] (brain) was found to be 22 ng/g; in data set [3] (kidney) it was 2320 ng/g; in data set [3] (liver), 1080 ng/g; in data set [3] (lung), 5160 ± 2890 ng/g; in data set [3] (plasma), 704 ng/mL; in data set [3] (tumor), 1310 ng/g. In addition, the IC50 in data set [4] (read-out: IC50 of DTX on PC3-TxR, DTX + 5 μg/ml PIP) was found to be 17.6 nM; in data set [4] (read-out: IC50 of DTX on PC3-TxR, DTX + 10 μg/ml PIP) it was 10.4 nM; in data set [4] (read-out: IC50 of DTX on PC3-TxR, DTX + 25 μg/ml PIP) it was 5.5 nM; in data set [4] (read-out: IC50 of DTX on PC3-TxR, DTX alone), 41.4 nM. In addition, the “inhibitory effect on the tumor growth in TxR tumor xenografts” value in data set [5] (model verification experiment, n = 3) was “no inhibitory effect”. The percentage of bodyweights in data set [6] came to 79%. Also, the “cell uptake of DTX” value in data set [7] (DTX 1 μM, absence of PIP) was found to be 0.35 ± 0.05 nmol/min/mg protein; in data set [7] (DTX 5 μM, absence of PIP), 2.44 ± 0.14 nmol/min/mg protein; in data set [7] (DTX 5 μM, after pre-incubation with PIP) it was 3.57 ± 0.75 nmol/min/mg protein; in data set [7] (DTX 10 μM, absence of PIP) it was 3.30 ± 0.38 nmol/min/mg protein; in data set [7] (DTX 10 μM, after pre-incubation with PIP), 5.20 ± 0.53 nmol/min/mg protein.
